Laboratory results as given in US20070037193A1, “Modulation of peroxisome proliferator-activated receptors” (priority 2005, published 2007).

Tests used:
PGR3/ZADH2 = test: Substrate specificity of PGR3/ZADH2; format: biochemical; details: 15-keto PGE2 replaced with the test substrate
Protocol: (§1) Enzymatic activity was determined as follows. 10 μg of the recombinant mouse or human PGR3/ZADH2 protein was incubated at 37° C. in a reaction buffer containing 0.1IM Tris-HCl (pH7.4), 0.5 mM NADPH, and 0.57 mM 15-keto PGE2. The reaction was conducted at 37° C. in the dark for 10 minutes and terminated by adding 700 μl of a buffer which contained 50 mM potassium hydrogen phthalate, pH 3.0, and 1% Tween 20. 200 μl of a color development reagent, which contained 790 μM indonitrotetrazolium chloride, 60 μM phenazene methosulfate, and 1% Tween 20, was added to oxidize any unreacted NADPH. Absorbance at 490 nm was measured by an ELISA plate reader. A standard curve was generated using reaction buffers containing serially diluted amounts of NADPH.
Substrate specificity of PGR3/ZADH2 was determined using the just-described procedure, except that 15-keto PGE2 was replaced with each of six prostaglandin substrates, each of three downstream metabolites, or leukotriene B4.

endogenous PPAR = test: Reporter gene assay of endogenous PPAR activity in differentiating 3T3-L1 cells; format: cell-based; details: 3T3-L1 cells induced to differentiate for two days
Protocol: (§2) The effect of prostaglandin on PPAR-gamma activity in adipocytes was investigated. After treatment with a medium that induces cell differentiation, 3T3-L1 cells were treated from day 2 to 4 during adipogenesis with 14 μM 15-keto PGE2, 13,14-dihydro-15-keto PGE2, 15-keto PGF2α, 13,14-dihydro-15-keto PGF2α, or 4.5 μM of BRL49653, a PPAR-gamma agonist. See Forman et al., Cell (1995) 83:803-812. At day 6, aggregates of lipid droplets were stained with oil-red O for observation. […] After being induced to differentiate for two days, the 3T3-L1 cells were transfected with a reporter gene.

PPAR-gamma = molecular target: T1, PPAR-gamma (Homo sapiens, UniProt P37231); test: GAL4-PPAR ligand-binding domain luciferase reporter in 3T3-L1 cells; format: cell-based
T1 construct: expressed in transfected cells; host or cells: 3T3-L1 cells
T1 sequence (P37231 238-503 limits assumed): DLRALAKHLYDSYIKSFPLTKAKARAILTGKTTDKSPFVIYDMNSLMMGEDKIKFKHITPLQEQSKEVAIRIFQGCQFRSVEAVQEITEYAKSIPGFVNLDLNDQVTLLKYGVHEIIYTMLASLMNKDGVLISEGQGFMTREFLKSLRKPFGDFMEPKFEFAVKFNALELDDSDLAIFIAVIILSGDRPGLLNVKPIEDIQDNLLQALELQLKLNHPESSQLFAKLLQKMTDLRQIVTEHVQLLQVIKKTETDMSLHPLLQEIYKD
Text: A luciferase reporter gene was transfected to 3T3-L1 cells together with the ligand-binding domain of PPAR-alpha, PPAR-gamma or PPAR-delta fused to a yeast GAL4 DNA-binding domain.

PPAR-gamma target genes = test: Protein expression of adipogenesis-specific PPAR-gamma target genes in 3T3-L1 cells; format: cell-based
Text: Also examined was the ability of 15-keto PGE2 to induce protein expression of adipogenesis-specific, PPAR-gamma target genes, i.e., IRS-1 and -2.

3T3-L1 cells = test: Adipogenesis in 3T3-L1 cells, oil-red O staining of lipid droplets; format: cell-based; details: 14 μM from day 2 to 4; staining at day 6
Protocol: as §2

Mouse PGR3/ZADH2 = molecular target: T2, Mouse PGR3/ZADH2 (Mus musculus, UniProt Q8BGC4); test: PGR3/ZADH2 enzyme inhibition assay (reduction of 15-keto-PGE2, NADPH consumption); format: biochemical; details: 50 μM compound, No Inhibitor = 100
T2 construct: GST; made in house; host or cells: E. coli
T2 sequence (Q8BGC4 1-377): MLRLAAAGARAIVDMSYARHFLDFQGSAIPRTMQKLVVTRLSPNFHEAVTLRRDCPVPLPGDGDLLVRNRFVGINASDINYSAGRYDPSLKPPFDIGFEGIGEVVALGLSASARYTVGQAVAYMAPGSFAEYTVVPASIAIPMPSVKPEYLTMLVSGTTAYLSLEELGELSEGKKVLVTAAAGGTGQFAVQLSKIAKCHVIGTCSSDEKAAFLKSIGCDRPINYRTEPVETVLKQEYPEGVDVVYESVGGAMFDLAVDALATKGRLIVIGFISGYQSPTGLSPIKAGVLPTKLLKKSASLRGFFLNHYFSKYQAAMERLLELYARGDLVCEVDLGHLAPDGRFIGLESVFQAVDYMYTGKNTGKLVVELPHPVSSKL
Protocol: as §1
(§3) Compounds 1-49 were tested for their inhibitory effects on PGR3/ZADH2 activity. These compounds are either commercially available (e.g., from Sigma-Aldrich, St. Louis, Mo.) or can be prepared from methods known in the art. The inhibition assay was performed following the procedure described above. Different concentrations of PGR3/ZADH2 inhibitors were added to the reaction mixture and incubated for 2 hours at 37° C.
(§4) More specifically, 50 μM of compounds 8, 12, 13, and 27, and 25 μM of tri-fluorobenzyl-2-hydroxycinnamate (compound 22) were added to the PGR3/ZADH2 enzyme reaction system and the ability of enzyme to reduce 15-keto-PGE2 were measured.

Human PGR3/ZADH2 = molecular target: T3, Human PGR3/ZADH2 (Homo sapiens, UniProt Q8N4Q0); test: as above; format: biochemical; details: 50 μM compound, No Inhibitor = 100
T3 construct: GST; made in house; host or cells: E. coli
T3 sequence (Q8N4Q0 1-377): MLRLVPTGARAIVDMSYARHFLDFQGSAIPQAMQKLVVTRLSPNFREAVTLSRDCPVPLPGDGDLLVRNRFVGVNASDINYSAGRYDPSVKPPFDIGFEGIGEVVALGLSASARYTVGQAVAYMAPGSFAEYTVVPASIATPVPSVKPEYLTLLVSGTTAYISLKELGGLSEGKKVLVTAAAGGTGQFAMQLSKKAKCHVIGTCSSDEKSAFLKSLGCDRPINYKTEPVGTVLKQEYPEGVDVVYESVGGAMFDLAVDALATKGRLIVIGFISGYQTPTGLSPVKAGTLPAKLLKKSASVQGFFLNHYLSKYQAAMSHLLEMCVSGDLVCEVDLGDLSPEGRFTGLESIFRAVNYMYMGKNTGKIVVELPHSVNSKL
Protocol: as §1, §3, §4

CCCCC[C@H](O)/C=C/[C@@H]1[C@@H](CC(=O)CCCCC(=O)O)[C@@H](O)C[C@H]1O [6-keto PGF1α]
specific activity as substrate of PGR3/ZADH2 (PGR3/ZADH2): no specific activity was detected

CCCCCC(=O)CCC1C(=O)CC(O)C1C/C=C\CCCC(=O)O (centres unmarked) [13,14-dihydro-15-keto PGD2]
specific activity as substrate of PGR3/ZADH2 (PGR3/ZADH2): no specific activity was detected

CCCCCC(=O)CC[C@H]1[C@H](O)CC(=O)[C@@H]1C/C=C\CCCC(=O)O [13,14-dihydro-15-keto PGE2]
specific activity as substrate of PGR3/ZADH2 (PGR3/ZADH2): no specific activity was detected | endogenous PPAR activity (reporter gene) (endogenous PPAR): failed to increase PPAR activity

CCCCCC(=O)CC[C@@H]1[C@@H](C/C=C\CCCC(=O)O)[C@@H](O)C[C@H]1O [13,14-dihydro-15-keto PGF2α]
specific activity as substrate of PGR3/ZADH2 (PGR3/ZADH2): no specific activity was detected | endogenous PPAR activity (reporter gene) (endogenous PPAR): failed to increase PPAR activity

CCCCCC(=O)/C=C/[C@H]1[C@H](O)CC(=O)[C@@H]1CCCCCCC(=O)O [15-keto PGE1]
specific activity as substrate of PGR3/ZADH2 (PGR3/ZADH2): reacted specifically

CCCCCC(=O)/C=C/[C@H]1[C@H](O)CC(=O)[C@@H]1C/C=C\CCCC(=O)O [15-keto PGE2]
endogenous PPAR activity (reporter gene) (endogenous PPAR): enhanced endogenous PPAR activity significantly | activation of PPAR-gamma (GAL4 fusion, luciferase reporter) (PPAR-gamma): activated PPAR-gamma | amount of IRS-1 protein (PPAR-gamma target genes): did not increase the amount of IRS-1 protein | PPAR-gamma1 and PPAR-gamma2 protein expression (PPAR-gamma target genes; added with MIX, insulin and dexamethasone): significantly enhanced PPAR-gammal and PPAR-gamma2 expression | expression of aP2 (PPAR-gamma target genes; even in the absence of MIX): strongly induced expression of aP2 | IRS-2 expression (PPAR-gamma target genes; in the presence of insulin and dexamethasone): enhanced the expression to a level similar to MIX | adipogenesis (lipid droplets, oil-red O) (3T3-L1 cells): effectively enhanced adipogenesis at a level similar to BRL49653

CCCCCC(=O)/C=C/[C@@H]1[C@@H](CCCCCCC(=O)O)[C@@H](O)C[C@H]1O [15-keto PGF1αL, 15-keto PGF1α]
specific activity as substrate of PGR3/ZADH2 (PGR3/ZADH2): reacted specifically

CCCCCC(=O)/C=C/[C@@H]1[C@@H](C/C=C\CCCC(=O)O)[C@@H](O)C[C@H]1O [15-keto PGF2α]
specific activity as substrate of PGR3/ZADH2 (PGR3/ZADH2): reacted specifically | endogenous PPAR activity (reporter gene) (endogenous PPAR): enhanced endogenous PPAR activity significantly | activation of PPAR-gamma (GAL4 fusion, luciferase reporter) (PPAR-gamma): activated PPAR-gamma

O=c1c(O)c(-c2ccccc2)oc2cc(O)cc(O)c12 [Compound 8]
activity at 50 µM (Mouse PGR3/ZADH2): 11.4% | activity at 50 µM (Human PGR3/ZADH2): 25.6%

CCCCC[C@H](O)/C=C/[C@@H]1[C@@H](C/C=C\CCCC(=O)O)[C@@H](O)C[C@@H]1O [Compound 11b-PGF2α, 11b-PGF2α]
specific activity as substrate of PGR3/ZADH2 (PGR3/ZADH2): no specific activity was detected

COc1cc(/C=C/C(=O)c2ccccc2O)cc(OC)c1OC [Compound 12]
activity at 50 µM (Mouse PGR3/ZADH2): 6.4% | activity at 50 µM (Human PGR3/ZADH2): 27.5%

COc1cc(/C=C/C(=O)c2cc(Br)ccc2O)cc(OC)c1OC [Compound 13]
activity at 50 µM (Mouse PGR3/ZADH2): 37.1% | activity at 50 µM (Human PGR3/ZADH2): 51.1%

O=c1c(O)c(-c2ccc(O)c(O)c2)oc2ccccc12 [Compound 27]
activity at 50 µM (Mouse PGR3/ZADH2): 87.4% | activity at 50 µM (Human PGR3/ZADH2): 91.1%

CCCCC[C@H](O)/C=C/[C@@H]1[C@@H](C/C=C\CCCC(=O)O)[C@H](O)C[C@H]1O [PGF2β]
specific activity as substrate of PGR3/ZADH2 (PGR3/ZADH2): no specific activity was detected

CCCCC/C=C\C[C@@H](O)/C=C/C=C/C=C\[C@@H](O)CCCC(=O)O [leukotriene B4]
specific activity as substrate of PGR3/ZADH2 (PGR3/ZADH2): no specific activity was detected
